Experimental data from the NIST ThermoML archive (doi:10.1016/j.jct.2012.06.020).

Settings: 101.33 kPa, Liquid, Vibrating tube method

C[S+](C)[O-] [dimethyl sulfoxide]
Settings	mass density [kg/m3]
293.15 K	1100.22
298.15 K	1095.19
303.15 K	1090.16
313.15 K	1080.12
323.15 K	1070.07
333.15 K	1060.03
